The values below come from patent US20060234986A1, “Use of TAFI inhibitors for enhanced myocardial reperfusion and facilitated PCI” (Schering Aktiengesellschaft, priority 2005, published 2006).

Data set [1] has as its system rat femoral artery occlusive thrombus. In words: Rat femoral artery thrombosis model (rose Bengal + light irradiation), incidence of reperfusion. The class given is in vivo. The source says:
A stable, occlusive thrombus was formed by giving rose Bengal intravenously followed by light irradiation. Free radicals generated at the site of irradiation result in endothelial damage that causes an occlusive thrombus. Thrombotic occlusion and effective fibrinolysis (reperfusion) were monitored by measuring blood flow with a Doppler flow probe. Since no spontaneous reperfusion is observed in this model, a threshold dose of tPA was used to mimic the endogenous fibrinolytic activity observed in patients with STEMI undergoing PCI (16-25% spontaneous reperfusion rate). […] Based on the results of phanmacokinetic studies and in vitro clot lysis assays, two doses (3 and 10 mg/kg) of a TAFI inhibitor of the invention, (2S)-2-(3-(amino)methylphenyl)-3-(((1R)-1-(3-phenylpropylsulfonyl)amino-2-methylpropyl)(hydroxy)phosphinoyl)propanoic acid trifluoroacetate, were used.
Male Wistar rats (241-270 g) were anesthetized with sodium pentobarbital. A section of the right femoral artery was isolated carefully, and a pulse Doppler flow probe was placed for monitoring blood flow. The left carotid artery, both jugular veins, and left femoral vein were cannulated with polyethylene tubes for monitoring blood pressure and heart rate, for injection of tPA, rose Bengal and TAFI inhibitor, respectively. Blood flow, blood pressure and heart rate were continuously recorded on a thermal recorder during the experiment. An occlusive thrombus was induced in the right femoral artery by bolus injection of rose Bengal followed by light exposure. Occlusive thrombus was observed approximately 6 min after the injection of rose Bengal and start of irradiation.
Rats were assigned to four groups for the tPA dose response as follows: • (1) Vehicle (saline; n=8) • (2) tPA (72 μg/kg/min=2.5 million I.U./kg/hr; n=8) • (3) tPA (115 μg/kg/min=4 million I.U./kg/hr; n=10) • (4) tPA (230 μg/kg/min=8 million I.U./kg/hr; n=8)
tPA or vehicle was infused via the right jugular vein beginning 10 min after the formation of occlusive thrombus and the infusion was continued for 60 min.
Rats were assigned to three groups for the TAFI inhibitor efficacy study as follows: • (1) tPA threshold (72 μg/kg/min, n=16) • (2) low TAFI inhibitor (3 mg/kg+0.03 mg/kg/min) and tPA threshold (72 μg/kg/min) (n=8) • (3) high TAFI inhibitor (10 mg/kg+0.10 mg/kg/min) and tPA threshold (72 μg/kg/min) (n=8)
Administration of TAFI inhibitor or vehicle via the left femoral vein was started simultaneously with tPA via the right jugular vein beginning 10 min after the formation of occlusive thrombus, both given as a bolus over 1 min and infusion for 59 min. […] The incidence of reperfusion was used as the index of drug efficacy.

The subject of data set [2] is α2-antiplasmin. The experiment in a line: Ex vivo α2-antiplasmin activity (colorimetric assay) in dog plasma. As to the method: Plasma drug concentration was measured using LC/MS/MS techniques. Ex vivo α2-antiplasmin, an indicator of systemic plasmin activation, was measured by colorimetric assay. Exogenously activated TAFI (10 nM) was added into the blank plasma and TAFI activity measured by colorimetric assays was defined as 100%. Plasma from TAFI inhibitor-administered dogs were treated in the same way, and results were expressed as the percent inhibition of the spiked TAFI activity.

The test system of data set [3] is bleeding time after sectioning of the cuticle. In words: Dog cuticle bleeding time. The class given is in vivo. The source says:
A dog femoral artery thrombosis model was used to test that TAFI inhibition by i.v. administration of a potent and selective TAFI inhibitor would potentiate fibrinolysis. A stable, occlusive thrombus was formed using FeCl2 to chemically injure the arterial wall. Thrombotic occlusion and reperfusion (effective fibrinolysis) were monitored by measuring blood flow with a Doppler flow probe. Since no spontaneous reperfusion is observed in this model, a sub-maximal dose of tPA was used to enhance baseline activity. […] Bleeding propensity was measured by determining the time required for bleeding to stop following a series of standardized wounds (sectioning of the cuticle).
Male Beagle dogs (8-12 kg) were anesthetized with isoflurane (2-3%). […] Femoral artery blood flow, systemic blood pressure, heart rate and breathing patterns were monitored and recorded on a data acquisition system during the experiment. […] The time for the cut to cease bleeding was recorded as the primary bleeding time.
After stabilization of hemodynamic parameters, a blood sample was taken for drug levels. […] Bleeding time was determined and a blood sample was collected 20 min after the start of the tPA infusion. […]

For `CC(C)[C@H](NS(=O)(=O)CCCc1ccccc1)P(=O)(O)C[C@H](C(=O)O)c1cccc(CN)c1.O=C(O)C(F)(F)F` [TAFI inhibitor, (2S)-2-(3-(amino)methylphenyl)-3-(((1R)-1-(3-phenylpropylsulfonyl)amino-2-methylpropyl)(hydroxy)phosphinoyl)propanoic acid trifluoroacetate], the Incidence of reperfusion in data set [1] (3 mg/kg TAFI inhibitor + tPA (72 μg/kg/min) post-thrombus formation, p = ns) is 25% (2/8) p = ns; in data set [1] (10 mg/kg TAFI inhibitor + tPA (72 μg/kg/min) post-thrombus formation, p < 0.03), 63% (5/8) p < 0.03; in data set [1] (high TAFI inhibitor dose 10 mg/kg + 0.10 mg/kg/min i.v. + tPA threshold 72 μg/kg/min, post-thrombus, reperfused/total rats) it was 5/8; in data set [1] (low TAFI inhibitor dose 3 mg/kg + 0.03 mg/kg/min i.v. + tPA threshold 72 μg/kg/min, post-thrombus, reperfused/total rats) it was 2/8. In addition, the “Inhibition of α2-antiplasmin activity induced by tPA infusion” value in data set [2] (TAFI inhibitor administered pre- or post-thrombus formation + tPA) was “did not change”. The Bleeding time result in data set [3] (TAFI inhibitor 10 mg/kg pre-thrombus + tPA 10 μg/kg/min, versus tPA alone) was “without further prolongation of bleeding time”.

Consider “tPA: tissue-type plasminogen activator, a plasminogen activator used as thrombolytic agent”, for which the Incidence of reperfusion in data set [1] (TAFI inhibitor efficacy study, tPA threshold dose 72 μg/kg/min alone, reperfused/total rats) is 2/16; in data set [1] (tPA dose response study, tPA 72 μg/kg/min infused 60 min, starting 10 min after occlusive thrombus, reperfused/total rats), 1/8; in data set [1] (tPA dose response study, tPA 115 μg/kg/min infused 60 min, reperfused/total rats), 5/10; in data set [1] (tPA dose response study, tPA 230 μg/kg/min infused 60 min, reperfused/total rats), 6/8. Further, in data set [2] (tPA infusion, dose dependence), the “Activity of α2-antiplasmin (indicator of systemic plasmin activation)” value is listed as “dose-dependently reduced”. Besides, the Bleeding time entry in data set [3] (dog, in vivo) is on record as “prolonged dose-dependently”.
